Measured values published in PubChem BioAssay AID248 (DTP/NCI, 2004).
“And” between values parts separate entries of the source, which are not always exact repeats. Equal values may be shown once. Inconclusive results and toxic doses are left out. Rule as the data show it: active = T/C of 150% or more; inactive = T/C below 125%.

System: L1210 leukemia ip in BDF1 mice, survival T/C
Experiment: NCI In Vivo Anticancer Drug Screen. Data for tumor model L1210 Leukemia (intraperitoneal) in B6D2F1 (BDF1) mice
Conditions: endpoint: mean survival time, higher = longer survival
In short: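 Read-out is survival time, reported as the treated-group measurement over the vehicle-control measurement.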

[1] = dose: 12.5 mg/kg/injection, schedule: Q01DX009 (ip), vehicle: Klucel (hydroxypropylcellulose) (HPC)
[2] = dose: 25.0 mg/kg/injection, schedule: Q01DX009 (ip), vehicle: Klucel (hydroxypropylcellulose) (HPC)
[3] = dose: 50.0 mg/kg/injection, schedule: Q01DX009 (ip), vehicle: Klucel (hydroxypropylcellulose) (HPC)
[4] = dose: 100.0 mg/kg/injection, schedule: Q01DX001 (ip), vehicle: Klucel (hydroxypropylcellulose) (HPC)
[5] = dose: 75.0 mg/kg/injection, schedule: Q01DX001 (ip), vehicle: carboxymethylcellulose (CMC)
[6] = dose: 150.0 mg/kg/injection, schedule: Q01DX001 (ip), vehicle: carboxymethylcellulose (CMC)
[7] = dose: 50.0 mg/kg/injection, schedule: Q01DX001 (ip), vehicle: carboxymethylcellulose (CMC)
[8] = dose: 100.0 mg/kg/injection, schedule: Q01DX001 (ip), vehicle: carboxymethylcellulose (CMC)
[9] = dose: 200.0 mg/kg/injection, schedule: Q01DX001 (ip), vehicle: carboxymethylcellulose (CMC)
[10] = dose: 400.0 mg/kg/injection, schedule: Q01DX001 (ip), vehicle: carboxymethylcellulose (CMC)
[11] = dose: 100.0 mg/kg/injection, schedule: Q01DX009 (ip), vehicle: Klucel (hydroxypropylcellulose) (HPC)
[12] = dose: 100.0 mg/kg/injection, schedule: Q04DX003 (ip), vehicle: Klucel (hydroxypropylcellulose) (HPC)
[13] = dose: 200.0 mg/kg/injection, schedule: Q04DX003 (ip), vehicle: Klucel (hydroxypropylcellulose) (HPC)
[14] = dose: 400.0 mg/kg/injection, schedule: Q04DX003 (ip), vehicle: Klucel (hydroxypropylcellulose) (HPC)
[15] = dose: 100.0 mg/kg/injection, schedule: Q01DX001 (ip), vehicle: saline
[16] = dose: 200.0 mg/kg/injection, schedule: Q01DX001 (ip), vehicle: saline
[17] = dose: 200.0 mg/kg/injection, schedule: Q01DX001 (ip), vehicle: Klucel (hydroxypropylcellulose) (HPC)
[18] = dose: 400.0 mg/kg/injection, schedule: Q01DX001 (ip), vehicle: Klucel (hydroxypropylcellulose) (HPC)
[19] = dose: 100.0 mg/kg/injection, schedule: Q04DX002 (ip), vehicle: Klucel (hydroxypropylcellulose) (HPC)
[20] = dose: 200.0 mg/kg/injection, schedule: Q04DX002 (ip), vehicle: Klucel (hydroxypropylcellulose) (HPC)
[21] = dose: 400.0 mg/kg/injection, schedule: Q04DX002 (ip), vehicle: Klucel (hydroxypropylcellulose) (HPC)
[22] = dose: 100.0 mg/kg/injection, schedule: Q04DX003 (ip), vehicle: saline with Tween-80
[23] = dose: 200.0 mg/kg/injection, schedule: Q04DX003 (ip), vehicle: saline with Tween-80
[24] = dose: 400.0 mg/kg/injection, schedule: Q04DX003 (ip), vehicle: saline with Tween-80
[25] = dose: 75.0 mg/kg/injection, schedule: Q01DX001 (ip), vehicle: saline

Measured: T/C

Oc1ccc2ccccc2c1/C=C/c1ccncc1
inactive: dose: 6.25 mg/kg/injection, schedule: Q01DX009 (ip), vehicle: Klucel (hydroxypropylcellulose) (HPC) 96 % of control | [1] 97 % of control | dose: 25.0 mg/kg/injection, schedule: Q01DX001 (ip), vehicle: Klucel (hydroxypropylcellulose) (HPC) 98 % of control | [2] 100 % of control | dose: 50.0 mg/kg/injection, schedule: Q01DX001 (ip), vehicle: Klucel (hydroxypropylcellulose) (HPC) 102 % of control | [3] 89 % of control | [4] 105 % of control and 91 % of control

CN(N)C(=O)Nc1ccc(Cl)c(Cl)c1
inactive: [5] 110 % of control | [6] 113 % of control

CC(C)CC(=O)N(C)c1ccccc1
inactive: [7] 111 % of control | [8] 108 % of control | [9] 100 % of control | [10] 97 % of control

O=C1C=CC(=O)N1CCCCCCCCCCN1C(=O)C=CC1=O
inactive: dose: 1.0 mg/kg/injection, schedule: Q01DX Z (ip), vehicle: methylcellulose (MC) 94 % of control | dose: 1.4 mg/kg/injection, schedule: Q01DX Z (ip), vehicle: methylcellulose (MC) 96 % of control | dose: 2.2 mg/kg/injection, schedule: Q01DX Z (ip), vehicle: methylcellulose (MC) 90 % of control

CNC(=O)Nc1cccc(C(F)(F)F)c1
inactive: [11] 103 % of control | [12] 102 % of control | dose: 200.0 mg/kg/injection, schedule: Q01DX009 (ip), vehicle: Klucel (hydroxypropylcellulose) (HPC) 100 % of control | [13] 102 % of control | [14] 123 % of control

O=C(O)C12CC=CCC1(C(=O)O)CC=CC2 (stereo unspecified)
inactive: [7] 96 % of control | [8] 98 % of control | [9] 102 % of control | [10] 98 % of control

COc1ccc2ccccc2c1C1NC(=O)c2ccccc2N1 (stereo unspecified)
inactive: [3] 97 % of control | [11] 97 % of control | dose: 150.0 mg/kg/injection, schedule: Q01DX009 (ip), vehicle: Klucel (hydroxypropylcellulose) (HPC) 92 % of control

N#CC(C#N)=C1CCCc2sccc21
inactive: [15] 90 % of control | [16] 95 % of control | dose: 400.0 mg/kg/injection, schedule: Q01DX001 (ip), vehicle: saline 92 % of control

O=Cc1ccc(OCc2cccc([N+](=O)[O-])c2)cc1
inactive: [4] 113 % of control | [17] 100 % of control | [18] 87 % of control

CCN(CC)CCCN=C(N)CCl
inactive: [1] 96 % of control | [2] 96 % of control | dose: 25.0 mg/kg/injection, schedule: Q04DX002 (ip), vehicle: Klucel (hydroxypropylcellulose) (HPC) 114 % of control | dose: 50.0 mg/kg/injection, schedule: Q04DX002 (ip), vehicle: Klucel (hydroxypropylcellulose) (HPC) 107 % of control | [19] 95 % of control

COC1=NS(=O)(=O)N=C(c2ccc(OC)cc2)O1
inactive: [19] 103 % of control | [20] 100 % of control | [21] 89 % of control

CCCN(CCC)C(=O)/C(=C\c1ccccc1)NC(=O)c1ccccc1
inactive: [8] 93 % of control | [9] 93 % of control | [10] 98 % of control

CCCCCCCCCCC(=O)CCC
inactive: [3] 92 % of control | [11] 97 % of control | [12] 95 % of control and 98 % of control | [13] 90 % of control | [14] 95 % of control and 100 % of control

CC(C)(C)N1CC1C(=O)Sc1ccccc1 (stereo unspecified)
inactive: dose: 25.0 mg/kg/injection, schedule: Q04DX003 (ip), vehicle: Klucel (hydroxypropylcellulose) (HPC) 102 % of control | dose: 50.0 mg/kg/injection, schedule: Q04DX003 (ip), vehicle: Klucel (hydroxypropylcellulose) (HPC) 101 % of control | [12] 109 % of control

COP(=O)(OC)OC1C(=O)NC(=O)NC1=O
inactive: [7] 98 % of control | [8] 93 % of control | [9] 96 % of control | [10] 96 % of control

O=C(O)c1c[nH]c2cc(Cl)ccc2c1=O
inactive: [4] 90 % of control | [22] 100 % of control | [17] 101 % of control | [23] 101 % of control and 105 % of control | [18] 97 % of control | [24] 100 % of control and 90 % of control

CC/C(=C(/Cl)c1ccccc1)c1ccccc1
inactive: [4] 98 % of control | [17] 102 % of control | [18] 100 % of control

CC1[N-]CCC[N-]CCC[N-]C(C)C2CCCC1[N-]2.[Ni+2].[O-][Cl+3]([O-])([O-])O (stereo unspecified)
inactive: dose: 25.0 mg/kg/injection, schedule: Q04DX002 (ip), vehicle: saline 92 % of control | dose: 50.0 mg/kg/injection, schedule: Q04DX002 (ip), vehicle: saline 89 % of control | dose: 100.0 mg/kg/injection, schedule: Q04DX002 (ip), vehicle: saline 92 % of control

OCc1nc2cc3nc(CO)[nH]c3cc2[nH]1
inactive: [5] 98 % of control | [6] 101 % of control

Nc1nc(N)c2ncn(C3OC(CO)C(O)C3O)c2n1 (stereo unspecified)
inactive: [15] 102 % of control | [16] 115 % of control

O=C1C2CCC1C(N1CCCC1)CC2 (stereo unspecified)
inactive: [25] 101 % of control | dose: 150.0 mg/kg/injection, schedule: Q01DX001 (ip), vehicle: saline 104 % of control

CN(C)CCCNC(CC#N)CCC#N (stereo unspecified)
inactive: dose: 50.0 mg/kg/injection, schedule: Q01DX009 (ip), vehicle: saline 91 % of control | dose: 100.0 mg/kg/injection, schedule: Q01DX009 (ip), vehicle: saline 92 % of control | dose: 200.0 mg/kg/injection, schedule: Q01DX009 (ip), vehicle: saline 92 % of control

O=C(Nc1cc(C(F)(F)F)ccc1Cl)N(Cc1ccccc1)c1ccccc1
inactive: [19] 93 % of control and 108 % of control | [20] 98 % of control and 118 % of control | [21] 98 % of control | dose: 800.0 mg/kg/injection, schedule: Q04DX002 (ip), vehicle: Klucel (hydroxypropylcellulose) (HPC) 94 % of control

CC(=O)Nc1ccc(S(=O)(=O)OCCC#N)cc1
inactive: [22] 99 % of control | [23] 99 % of control | [24] 90 % of control

C=CC[N+](C)(C)C
inactive: [25] 101 % of control
